We go through 7 molecules from patent publication US20160287712A1, “FATTY ACID NIACIN CONJUGATES” (priority 2013, published 2016).

For orientation: Cmax means the peak of the concentration-time curve.

Where two headings read alike, the source gives them in different places.

Data set [1] is described as follows: Pharmacokinetics after oral administration to rats with jugular vein and portal vein catheters. Particulars: rat. Format: in vivo, Male Sprague-Dawley rats. The method, then:
Pharmacokinetic studies were conducted in male Sprague-Dawley rats, with an approximate weight of 250-300 g at dose initiation. All animals were instrumented with a jugular vein catheter (JVC) and a portal vein catheter (PVC) to facilitate blood collections. Jugular and Portal vein catheterizations were conducted at Charles River Laboratories under protocols approved by the Institutional Animal Care and Use Committee (IACUC) of Charles River Lab (Approved PO 4122010).
Animals were anaesthetized with ketamine and xylazine administered intraperitoneally and provided buprenorphine subcutaneously. The skin overlying the scapula and over the right jugular vein were shaved and skin aseptically prepared. A 1.1.5 cm cranial-caudal incision, followed by blunt dissection was performed to expose the jugular vein, which was then catheterized using either a PU or blended catheter. After fixation of the catheter, it was flushed with sterile saline to verify patency. The distal end of the catheter was then tunneled subcutaneously to the dorsal scapular region where it was exteriorized. Catheter patency was verified again. The catheter was then locked with 50% heparinized dextrose solution. The exteriorized end of the catheter was sealed with a stainless steel plug. The skin incision was then closed with wound clips.
Animals were anaesthetized with ketamine and xylazine administered intraperitoneally. A mid-line incision 1-2 cm was made in the abdominal cavity and the portal vein was detached near the liver. To prevent bleeding, the portal vein was ligated temporarily as the catheter was inserted. The cathether (3.5 Fr polyurethane tube, Access™ technologies Inc.) was inserted immediately and fixed by a purse-string suture on the portal vein. The time to reperfusion was about 1 min after intercepted blood flow. This method for insertion of catheter can avoid the occlusion of the vessel. In addition, a catheter with trumpet-shaped opening was used to prevent the catheter from slipping out of the vessel with minimizing the effect of blood flow. Another end of the catheter was passed subcutaneously to the dorsal back of the neck and the laparotomy was closed in two layers, with a 4/0 silk blade to the muscle, and a surgical clip to close the skin.
Male Sprague-Dawley rats instrumented with jugular vein catheter and portal vein catheter were separated into groups of 4. The test compound was administered by oral gavage at dose of 30 mg/kg in a vehicle consisting of Tween (specifically Tween 80), Peceol, PEG400 (at a ratio of 40:50:10) along with 0.2% tocopherol and emulsified in water, with a water to oil ratio of 66:1 (the dose concentration was 6 mg/mL and the dose volume was 5 mL/kg). Whole blood (0.3 mL) was collected at both the jugular and portal vein at the following time points: 10, 20, 40 min, 1, 1.5, 2 and 4 hours post-dose. Blood samples were placed into tubes containing sodium heparin anticoagulant. Each whole blood sample was placed on ice until sample could be centrifuged at 2200×g at 5° C.±3° C. for 10 min to isolate plasma.
The amount of the various metabolites and parent compound present in the plasma samples were then analyzed by LC/MS/MS using an Agilent 6410 Triple Quadrupole with an ESI interface. The column used was a Phenomenex Gemini C6 Phenyl 110A 50×4.6 mm, 1.8 μM. The mobile phase used was water and methanol, each containing 0.1% formic acid. Data was further analyzed by WinNolin Software. For a given test compound, the following compounds were quantitated from the collected plasma samples: 1) test compound, 2) niacin linker, 3) linker-EPA, 4) niacin and 5) nicotinuric acid.
In order to quantitate each of these compounds in plasma, standard curves in blank plasma were generated using the appropriate internal standard (the final concentration range used were 8333 ng/mL, 2083 ng/mL, 521 ng/mL, 130.2 ng/mL, 32.5 ng/mL, 8.1 ng/mL, 2.0 ng/mL and 0.5 ng/mL). […]

A short description of data set [2]: Compound hydrolysis and tissue distribution: test compound and metabolites in liver after oral dosing for 3.5 days. In kind it is in vivo, Male Sprague-Dawley rats. To be noted: for Amount of Analyte: Linker-Fatty Acid Metabolite / Amount of Analyte: Niacin-linker Metabolite / Amount of Analyte: Nicotinuric Acid / concentration at 4 h: male, Sprague-Dawley; for Amount of Analyte: Linker-Fatty Acid Metabolite / Amount of Analyte: Niacin-linker Metabolite / Amount of Analyte: Nicotinuric Acid: 4 h; for concentration at 4 h: liver homogenate, rat liver, 100 mg/kg oral gavage every 12 hours, 7 doses, 4 hours after last dose, read-out: Amount of Analyte: Intact Test Compound. The protocol: The amount of test compound and its metabolites in the liver provides information on distribution of such compounds within the rat, as well as information on stability of the test compound, such as resistance of the test compound to hydrolytic degradation. […] A test compound was administered to a single group of Male Sprague-Dawley rats. Each group contained 6 animals. […] Two additional animals were administered vehicle alone as controls. Animals were dosed every 12 hours for 3.5 days (7 doses total). Rats were fasted overnight after the PM dose on day 3 of study. On day 4 the rats were euthanized 4 hours after the last dose. Vehicle treated rats were also fasted prior to collection of tissue samples on day 4. At 4 hours after last dose, the livers were excised, rinsed and weight of each tissue recorded. Livers were snap frozen in liquid nitrogen and stored in 50 mL polypropylene conical centrifuge tubes at −80° C. Liver tissue was homogenized in PBS at a volume of 2 mL per gram of tissue. The amount of test compound and various metabolites of the test compound present in the liver homogenates were analyzed by LC/MS/MS as done in the previous example. […] In order to quantitate each of these compounds in the homogenates, standard curves in blank liver homogenates were generated using the appropriate internal standard.

Setting [3] is: male, Sprague-Dawley, in vivo, po, 30 mg/kg.
Setting [4] is: male, Sprague-Dawley, in vivo, po, 30 mg/kg, Peripheral AUClast, parent compound.
Setting [5] is: male, Sprague-Dawley, in vivo, po, 30 mg/kg, Peripheral Cmax, parent compound.
[6] abbreviates: male, Sprague-Dawley, in vivo, po, 30 mg/kg, Portal AUClast, parent compound.
Where [7] appears, read: male, Sprague-Dawley, in vivo, po, 30 mg/kg, Portal Cmax, parent compound.

On to `CC/C=C\C/C=C\C/C=C\C/C=C\C/C=C\CCCC(=O)N1CC[C@H](NC(=O)c2cccnc2)C1` [Compound I-24, N—((S)-1-((5Z,8Z,11Z,14Z,17Z)-icosa-5,8,11,14,17-pentaenoyl)pyrrolidin-3-yl)nicotinamide], for which the “ratio of Portal AUClast of Parent compound to Portal AUClast of Niacin-linker metabolite” value (“ratio … of Niacin-linker metabolite” below) in data set [1] (setting [3]) came to 41. The AUC(0-t) in data set [1] (setting [4]) stood at 964 ng·h/mL. The Cmax in data set [1] (setting [5]) was determined as 565 ng/mL. In addition, the AUC(0-t) in data set [1] (setting [6]) turned out to be 6640 ng·h/mL. In addition, the Cmax in data set [1] (setting [7]) is 5320 ng/mL. Besides, in data set [2] (rat, in vivo, po, 100 mg/kg), the “Amount of Analyte: Linker-Fatty Acid Metabolite” value is 77.2 nanograms of analyte per gram of tissue homogenate, the “Amount of Analyte: Niacin-linker Metabolite” value is listed as 2826 nanograms of analyte per gram of tissue homogenate and the “amount of intact test compound present in the liver compared to other compounds of Table 9” value was “significantly larger”.

With `CC/C=C\C/C=C\C/C=C\C/C=C\C/C=C\CCCC(=O)N[C@H]1CCN(C(=O)c2cccnc2)C1` [Compound I-23, (5Z,8Z,11Z,14Z,17Z)—N—((S)-1-nicotinoylpyrrolidin-3-yl)icosa-5,8,11,14,17-pentaenamide], the “ratio … of Niacin-linker metabolite” value in data set [1] (setting [3]) came to 0.17. The values for the AUC(0-t) in data set [1] (setting [4]) and in data set [1] (setting [6]) were 60 ng·h/mL and 1440 ng·h/mL, respectively. The Cmax turned out to be 68 ng/mL in data set [1] (setting [5]) and 2600 ng/mL in data set [1] (setting [7]). Also, the “Amount of Analyte: Niacin-linker Metabolite” value in data set [2] (rat, in vivo, po, 100 mg/kg) was 2290 nanograms of analyte per gram of tissue homogenate.

`CC/C=C\C/C=C\C/C=C\C/C=C\C/C=C\CCCC(=O)N1CCN(C(=O)c2cccnc2)CC1` [Compound I-13, (5Z,8Z,11Z,14Z,17Z)-1-(4-nicotinoylpiperazin-1-yl)icosa-5,8,11,14,17-pentaen-1-one]: the “ratio … of Niacin-linker metabolite” value in data set [1] (setting [3]) was 0.83. In addition, the AUC(0-t) in data set [1] (setting [4]) worked out at 142 ng·h/mL. The Cmax in data set [1] (setting [5]) was determined as 80 ng/mL. Also, in data set [1] (setting [6]), the AUC(0-t) stood at 3560 ng·h/mL. Moreover, in data set [1] (setting [7]), the Cmax turned out to be 6070 ng/mL. In data set [2] (rat, in vivo, po, 100 mg/kg), the “Amount of Analyte: Linker-Fatty Acid Metabolite” value is on record as 15782 nanograms of analyte per gram of tissue homogenate, the “Amount of Analyte: Niacin-linker Metabolite” value is listed as 2023 nanograms of analyte per gram of tissue homogenate and the “Amount of Analyte: Nicotinuric Acid” value is 15.1 nanograms of analyte per gram of tissue homogenate.

In the case of `CC/C=C\C/C=C\C/C=C\C/C=C\C/C=C\CCCC(=O)N[C@H]1CC[C@H](CNC(=O)c2cccnc2)CC1` [Compound I-41, N-(((1R,4R)-4-((5Z,8Z,11Z,14Z,17Z)-icosa-5,8,11,14,17-pentaenamido)cyclohexyl)methyl)nicotinamide], in data set [1] (in vivo, po, 30 mg/kg), the “Peripheral AUClast, parent compound” value was found to be 218 ng·h/mL; the “Portal AUClast, parent compound” value is 2,507 hr*ng/mL; the “ratio … of Niacin-linker metabolite” value was 1.3.

`CC/C=C\C/C=C\C/C=C\C/C=C\C/C=C\CCCC(=O)NCCNC(=O)c1cccnc1` [Compound I-8, N-(2-(5Z,8Z,11Z,14Z,17Z)-eicosa-5,8,11,14,17-pentaenamidoethyl)nicotinamide, reference compound]: in data set [1] (setting [3]), the “ratio … of Niacin-linker metabolite” value amounted to 0.06. For the same molecule, the AUC(0-t) in data set [1] (setting [4]) was 81 ng·h/mL; in data set [1] (setting [6]), 662 ng·h/mL. For the same molecule, the maximum concentration (Cmax) in data set [1] (setting [5]) was 78 ng/mL; in data set [1] (setting [7]), 756 ng/mL. Also, the “Amount of Analyte: Niacin-linker Metabolite” value in data set [2] (rat, in vivo, po, 100 mg/kg) is recorded as 2351 nanograms of analyte per gram of tissue homogenate. In addition, in data set [2] (rat, in vivo, po, 100 mg/kg), the “Amount of Analyte: Nicotinuric Acid” value was 785 nanograms of analyte per gram of tissue homogenate.

With `CC/C=C\C/C=C\C/C=C\C/C=C\C/C=C\CCCC(=O)N(C)CCNC(=O)c1cccnc1` [Compound I-15, N-(2-((5Z,8Z,11Z,14Z,17Z)—N-methylicosa-5,8,11,14,17-pentaenamido)ethyl)nicotinamide], the AUC(0-t) in data set [1] (setting [4]) was 767 ng·h/mL; in data set [1] (setting [6]) it was 5060 ng·h/mL. Further, the Cmax in data set [1] (setting [5]) is 360 ng/mL; in data set [1] (setting [7]), 4520 ng/mL. The concentration at 4 h in data set [2] was found to be 459 ng/g.

As to `CC/C=C\C/C=C\C/C=C\C/C=C\C/C=C\C/C=C\CCC(=O)NCCNC(=O)c1cccnc1` [Compound I-7, N-(2-(4Z,7Z,10Z,13Z,16Z,19Z)-docosa-4,7,10,13,16,19-hexaenamidoethyl)nicotinamide, reference compound], the Cmax in data set [1] (male, Sprague-Dawley, jugular vein plasma, po, 30 mg/kg, 30 mg/kg oral gavage, jugular vein plasma, read-out: Peripheral Cmax, parent compound) came to 238 ng/mL; in data set [1] (male, Sprague-Dawley, portal vein plasma, po, 30 mg/kg, 30 mg/kg oral gavage, portal vein plasma, read-out: Portal Cmax, parent compound), 1850 ng/mL. The AUC(0-t) is 353 ng·h/mL in data set [1] (male, Sprague-Dawley, jugular vein plasma, po, 30 mg/kg, 30 mg/kg oral gavage, jugular vein plasma, t=10 min to 4 hrs, read-out: Peripheral AUClast, parent compound) and 1460 ng·h/mL in data set [1] (male, Sprague-Dawley, portal vein plasma, po, 30 mg/kg, 30 mg/kg oral gavage, portal vein plasma, t=10 min to 4 hrs, read-out: Portal AUClast, parent compound). Further, the “portal concentration of the parent compound compared to compounds I-15 and I-24” value in data set [1] (30 mg/kg oral gavage) is reported as “lower”. In addition, the concentration at 4 h in data set [2] is 6.7 ng/g.
